According to patent EP0359256A2, “The use of inositoltrisphosphate in the treatment of tissue damage” (PERSTORP AB, priority 1988, dated 1990):

Tests used:
Format in all cases: in vivo
[1] = system: shaved dorsal skin of rabbits; assay: Local oedema formation in rabbit dorsal skin in response to mediators of increased microvascular permeability, Evans Blue; conditions: 50 mg/kg directly after injection of the mediators
Protocol: Local oedema formation is measured in the shaved dorsal skin of rabbits in response to mediators of increased microvascular permeability, such as histamine, bradykinin and platelet activating factor (PAF). When a vasodilator such as calcitonin gene-related peptide (CGRP) is administered together with the mediators the blood flow is increased and this system is established for testing compounds that reduces oedema formation.
Prior to injection of the different mediators Evans Blue is injected into the anaesthetized animals. The distribution of Evans Blue is a measurement of the tissue damage and oedema formation. Directly after injection of the mediators either saline (control) or 50 mg/kg of D-myo-inositol-1.2.6-trisphos phate (IP₃) are performed.
The results are shown below as per cent inhibition of IP₃ compared to control.

mice = assay: Toxicity after intraperitoneal injection of very high doses; conditions: 160 mg/kg body weight by intraperitoneal injection
hamster cheek pouch = assay: Vascular permeability and bleeding induced by histamine in the hamster cheek pouch; conditions: 80 min period
Protocol: Vascular permeability and bleeding induced by histamine in the hamster cheek pouch was determined in the presence of D-myo-inositol-1.2.6-trisphosphate (IP₃) compared to control. Male hamsters were fasted overnight and anaesthetised with sodium pentobarbitone. Infusion was performed through the jugular vein. Injection of histamine (2.7 mg/kg) was preceded by either saline (control) or IP₃ (5.0 mg/kg).

skin of the abdomen = assay: Controlled burn damage in rats, albumin leakage measured with Evans Blue; conditions: n=10, 10 mg/kg injection 15 minutes after the burn, then infusion of 0.2 mg/min for 2 hours
Protocol: A controlled burn damage is induced in rats as a heat probe is applied to the skin of the abdomen with a constant pressure. The probe has a surface temperature of […] and is allowed to deliver a specific amount of energy until the temperature is lowered to 37°C. 15 minutes after the induction of the burn an injection of saline (control) or D-myo-inositol-1.2.6-trisphosphate (IP₃) was performed. After this first injection (10 mg/kg IP₃) an infusion of 0.2 mg/min IP₃ followed for 2 hours. 90 minutes after the damage Evans Blue is injected to the animals. This compound binds to albumin, which leaks into the damaged tissue. The amount of albumin leakage is then easily determined by measuring the intensity of colour of Evans Blue in different parts of the tissue. After another 30 minutes the animals are killed and the tissue damage is determined. […] Thus IP₃ is an protective substance against tissue damage caused by burns.

rat hind-paw = assay: Carrageenan-induced oedema of the rat hind-paw; conditions: male rats, 1000 mg/kg injected 2 hours and 1 hour before carrageenan; four hours after induction of the damage
Protocol: Injection of carrageenan into the subplanar surface of the rat hind-paw induces a tissue damage that results in pronounced oedema. The degree of oedema can be reproducibly quantified by measuring paw circumference.
Two groups of five male rats were injected 2 hours and 1 hour before injection of carrageenan with 1000 mg/kg D-myo-inositol-1.2.6-trisphosphate (IP₃) or Krebs ringer solution (control) respectively.
Measurement of the paw diameter was made at hourly intervals.

O=P(O)(O)OC1[C@H](OP(=O)(O)O)[C@H](O)C(O)[C@H](O)[C@H]1OP(=O)(O)O (stereo partly drawn) [IP₃, D-myo-inositol-1.2.6-trisphosphate]
% inhibition with IP₃ compared to control ([1]; mediator Bradykinin): 64%
% inhibition with IP₃ compared to control ([1]; mediator Histamine): 61%
% inhibition with IP₃ compared to control ([1]; mediator PAF): 64%
toxic effects (mice): no toxic effects
% inhibition (hamster cheek pouch; inhibition of petechiae versus saline control, histamine 2.7 mg/kg, IP₃ 5.0 mg/kg): 88%
number of petechiae (hamster cheek pouch; male hamsters, histamine 2.7 mg/kg preceded by IP₃ 5.0 mg/kg, infusion through jugular vein): 1.0
burn damage compared to control (skin of the abdomen): significantly reduced
reduces the oedema as compared to control (rat hind-paw): 40%
